Results published in paper PMC5589751, “Synthesis, high-throughput screening and pharmacological characterization of β–lactam derivatives as TRPM8 antagonists” (Scientific Reports, 2017).

Tests used:
[1] = Kinetic solubility; type: physicochemical
[2] = target: T1, hTRPV1 (Homo sapiens, UniProt Q8NER1); test: Whole-cell patch clamp in cells expressing hTRPV1; type: cell-based
T1 construct: expressed in transfected cells; host or cells: HEK
Protocol: Electrophysiological recording was carried out 1-3 d after cells seeded. Membrane currents and voltages were recorded by patch clamp using the whole-cell configuration. […] In calcium-free bath solution, CaCl2 was replaced with 5mM EGTA. For potassium and sodium recordings, CsCl was substituted by KCl and the pH was adjusted to pH 7.2 with KOH. Patch pipettes were prepared from thin-walled borosilicate glass capillaries (World Precision Instruments, Sarasota, FL, USA), pulled with a horizontal puller (P-97, Sutter Instruments, Novato, CA, USA) to have a tip resistance of 2-4 MΩ when filled with internal solutions. Data were sampled at 10 kHz (EPC10 amplifier with PatchMaster 2.53 software, HEKA Electronics, Lambrecht, Germany) and low-pass filtered at 3 kHz for analysis (PatchMaster 2.53 and GraphPad Prism 5, Graphpad Software, USA). The series resistance was <10 MΩ and to minimize voltage errors was compensated to 60-80%. All measurements were performed at 24-25°C. The temperature was adjusted with a water-cooled Peltier device placed at the inlet of the chamber and controlled by a feedback device (Automatic Temperature Controller TC-324B, Warner Instruments). Cold-sensitivity was investigated with a temperature decrease to 16-18 °C. page 44: Figure 1S. […] A) […] compound 41 (blue line). Pre-application of compound (20 s) was followed by coapplication with 500 […] 41. […] C) […] Pre-application of […] Voltage was held at -60 mV for all the experiments. […] (1 picture or pasted object on this page, not shown here)

[3] = target: T2, TRPM8 (Rattus norvegicus, UniProt Q8R455); test: Ca2+ microfluorography (Fluo-4 NW), menthol-induced Ca2+ signal in HEK-CR1-TRPM8 cells; type: cell-based; conditions: for % Block TRPM8 50 µM: 50 µM compound; for % Block TRPM8 50 µM / IC50: agonist 100 µM menthol, HEK-CR1-TRPM8 cells
T2 construct: expressed in transfected cells
Protocol: (§1) All compounds were tested at two different concentrations (50 and 5 µM) on TRPM8 and TRPV1 channels stably expressed in HEK and SH-SY5Y cell lines, respectively. The agonist induced intracellular Ca^2+ signals were measured using a fluorescent Ca^2+ indicator, in the absence and in the presence of test compounds. […] The obtained results were compared to those of 68 (AMTB, TRPM8 antagonist) and ruthenium red (TRPV1 antagonist). The IC50 values for the assay on TRPM8 were also calculated.
(§2) For fluorescence assays, cells expressing TRP channels (SH-SY5Y-TRPV1 and HEKCR1-TRPM8) were seeded in 96-well plates (Corning Incorporated, Corning, NY) at a cell density of 40,000 cells 2 days before treatment. The day of treatment the medium was replaced with 100 µL of the dye loading solution Fluo-4 NW supplemented with probenecid 2.5 mM. Then the compounds dissolved in DMSO were added at the desired concentrations and the plate(s) were incubated at 37 °C in a humidified atmosphere of 5% CO2 for 60 minutes.
(§3) The fluorescence was measured using instrument settings appropriate for excitation at 485 nm and emission at 535 nm (POLARstar Omega BMG LABtech). […] The corresponding antagonist
(§4) (10 µM Ruthenium Red forTRPV1 and 10 µM 68 for TRPM8) was added for the blockade. The changes in fluorescence intensity were recorded during 15 cycles more. […] The blocking percentage was calculated as follow (Eq. 1):1 %TRPBlockedResponse=(1−Fo−Fi/FCo−FCi)∗100 where Fo is the fluorescence after the addition of menthol in the presence of the compound, Fi is the fluorescence before the addition of menthol in the presence of the compound, FCo is the fluorescence after the addition of menthol in the absence of the compound, FCi is the fluorescence before the addition of menthol in the absence of the compound. To guarantee that our results were useful we only used assays with a Z-factor higher than 0.5.
(§5) The statistical Z-factor to determine the quality of the HTS experiment as was calculated using the equation 2:2 Z‐factor=1−3∗(SDmax+SDmin)/Meanmax−Meanmin where: Meanmax is the mean of the maximum fluorescence in the presence of agonist, SDmax is the standard deviation of the maximum fluorescence in the presence of agonists, Meanmin is the mean of the maximum fluorescence in the presence of agonist and antagonist and SDmin is the standard deviation of the maximum fluorescence in the presence of agonist and antagonist.

[4] = target: TRPV1 (Rattus norvegicus, UniProt O35433); test: Ca2+ microfluorography (Fluo-4 NW), capsaicin-induced Ca2+ signal in SH-SY5Y-TRPV1 cells; type: cell-based; conditions: 50 µM compound; agonist 10 µM capsaicin; SH-SY5Y-TRPV1 cells
Protocol: as §1, §2, §3, §4, §5

[5] = target: NaV1.6 (Homo sapiens, UniProt Q9UQD0); test: Whole-cell patch clamp in cells expressing NaV1.6; type: cell-based
Protocol: Electrophysiological recording was carried out 1–3 d after cells seeded. Membrane currents and voltages were recorded by patch clamp using the whole-cell configuration. For whole-cell recordings of HEK-hTRPV1 and HEK-TRPM8 cells, pipette solution contained (in mM) 140 CsCl, 5 EGTA, and 10 HEPES, adjusted to pH 7.2 with CsOH, and bath solution contained (in mM) 140 NaCl, 5 KCl, 2 CaCl2, 2 MgCl2, 5 EGTA, 10 D-glucose, 10 Mannitol and 10 HEPES, adjusted to pH 7.4 with NaOH. In calcium-free bath solution, CaCl2 was replaced with 5mM EGTA. For potassium and sodium recordings, CsCl was substituted by KCl and the pH was adjusted to pH 7.2 with KOH. Patch pipettes were prepared from thin-walled borosilicate glass capillaries (World Precision Instruments, Sarasota, FL, USA), pulled with a horizontal puller (P-97, Sutter Instruments, Novato, CA, USA) to have a tip resistance of 2–4 MΩ when filled with internal solutions. Data were sampled at 10 kHz (EPC10 amplifier with PatchMaster 2.53 software, HEKA Electronics, Lambrecht, Germany) and low-pass filtered at 3 kHz for analysis (PatchMaster 2.53 and GraphPad Prism 5, Graphpad Software, USA). The series resistance was <10 MΩ and to minimize voltage errors was compensated to 60–80%. All measurements were performed at 24–25°C. […]

T1 sequence (Q8NER1 whole entry): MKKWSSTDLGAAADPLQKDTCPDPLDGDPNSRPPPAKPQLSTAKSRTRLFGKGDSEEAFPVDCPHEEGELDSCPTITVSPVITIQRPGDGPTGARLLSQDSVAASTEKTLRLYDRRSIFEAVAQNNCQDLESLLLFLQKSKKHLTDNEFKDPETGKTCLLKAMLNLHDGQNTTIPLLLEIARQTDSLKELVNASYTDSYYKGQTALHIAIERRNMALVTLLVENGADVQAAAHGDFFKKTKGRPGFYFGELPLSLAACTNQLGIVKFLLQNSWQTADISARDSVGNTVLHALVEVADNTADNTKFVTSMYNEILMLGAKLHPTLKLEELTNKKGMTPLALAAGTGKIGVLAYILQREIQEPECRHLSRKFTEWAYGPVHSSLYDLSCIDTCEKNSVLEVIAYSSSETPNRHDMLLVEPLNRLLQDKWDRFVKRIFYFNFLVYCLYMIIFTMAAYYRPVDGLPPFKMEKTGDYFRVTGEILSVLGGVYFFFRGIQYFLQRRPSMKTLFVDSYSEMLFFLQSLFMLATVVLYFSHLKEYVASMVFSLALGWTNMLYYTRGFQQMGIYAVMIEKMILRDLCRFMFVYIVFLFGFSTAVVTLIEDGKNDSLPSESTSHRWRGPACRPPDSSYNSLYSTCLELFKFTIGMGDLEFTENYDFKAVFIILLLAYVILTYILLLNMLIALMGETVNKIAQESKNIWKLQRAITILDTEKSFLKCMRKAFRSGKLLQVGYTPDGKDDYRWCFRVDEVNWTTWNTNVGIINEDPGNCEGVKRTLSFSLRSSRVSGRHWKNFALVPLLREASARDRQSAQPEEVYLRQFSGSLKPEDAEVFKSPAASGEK
T2 sequence (Q8R455 whole entry): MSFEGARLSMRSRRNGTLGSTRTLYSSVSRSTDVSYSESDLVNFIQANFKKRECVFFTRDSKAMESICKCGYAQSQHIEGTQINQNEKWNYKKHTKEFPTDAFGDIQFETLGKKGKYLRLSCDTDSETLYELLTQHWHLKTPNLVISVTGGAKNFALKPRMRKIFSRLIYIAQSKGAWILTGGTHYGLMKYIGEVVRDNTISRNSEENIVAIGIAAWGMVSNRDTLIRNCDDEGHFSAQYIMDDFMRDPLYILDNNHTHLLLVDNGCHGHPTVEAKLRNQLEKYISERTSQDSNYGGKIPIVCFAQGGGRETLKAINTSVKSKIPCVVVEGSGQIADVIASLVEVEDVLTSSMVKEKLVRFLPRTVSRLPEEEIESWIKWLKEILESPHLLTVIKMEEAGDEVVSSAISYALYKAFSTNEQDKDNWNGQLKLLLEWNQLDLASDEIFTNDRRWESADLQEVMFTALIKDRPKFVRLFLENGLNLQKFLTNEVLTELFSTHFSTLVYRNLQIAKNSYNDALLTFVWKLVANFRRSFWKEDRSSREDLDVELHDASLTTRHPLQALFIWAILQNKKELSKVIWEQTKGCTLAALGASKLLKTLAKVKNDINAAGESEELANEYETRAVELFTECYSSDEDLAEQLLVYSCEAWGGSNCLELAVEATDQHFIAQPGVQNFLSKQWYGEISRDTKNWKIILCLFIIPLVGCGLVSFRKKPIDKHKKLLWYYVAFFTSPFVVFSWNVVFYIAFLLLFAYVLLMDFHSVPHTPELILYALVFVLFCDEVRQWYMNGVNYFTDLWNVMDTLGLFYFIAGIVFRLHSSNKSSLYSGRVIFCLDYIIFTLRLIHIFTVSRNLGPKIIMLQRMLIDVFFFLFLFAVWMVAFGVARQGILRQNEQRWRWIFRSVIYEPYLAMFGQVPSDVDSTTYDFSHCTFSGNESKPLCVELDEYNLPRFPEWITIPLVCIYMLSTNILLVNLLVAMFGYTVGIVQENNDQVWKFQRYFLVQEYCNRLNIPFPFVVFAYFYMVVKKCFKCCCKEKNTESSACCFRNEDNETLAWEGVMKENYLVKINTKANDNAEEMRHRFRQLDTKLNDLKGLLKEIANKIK
Sequence of TRPV1 (O35433 whole entry): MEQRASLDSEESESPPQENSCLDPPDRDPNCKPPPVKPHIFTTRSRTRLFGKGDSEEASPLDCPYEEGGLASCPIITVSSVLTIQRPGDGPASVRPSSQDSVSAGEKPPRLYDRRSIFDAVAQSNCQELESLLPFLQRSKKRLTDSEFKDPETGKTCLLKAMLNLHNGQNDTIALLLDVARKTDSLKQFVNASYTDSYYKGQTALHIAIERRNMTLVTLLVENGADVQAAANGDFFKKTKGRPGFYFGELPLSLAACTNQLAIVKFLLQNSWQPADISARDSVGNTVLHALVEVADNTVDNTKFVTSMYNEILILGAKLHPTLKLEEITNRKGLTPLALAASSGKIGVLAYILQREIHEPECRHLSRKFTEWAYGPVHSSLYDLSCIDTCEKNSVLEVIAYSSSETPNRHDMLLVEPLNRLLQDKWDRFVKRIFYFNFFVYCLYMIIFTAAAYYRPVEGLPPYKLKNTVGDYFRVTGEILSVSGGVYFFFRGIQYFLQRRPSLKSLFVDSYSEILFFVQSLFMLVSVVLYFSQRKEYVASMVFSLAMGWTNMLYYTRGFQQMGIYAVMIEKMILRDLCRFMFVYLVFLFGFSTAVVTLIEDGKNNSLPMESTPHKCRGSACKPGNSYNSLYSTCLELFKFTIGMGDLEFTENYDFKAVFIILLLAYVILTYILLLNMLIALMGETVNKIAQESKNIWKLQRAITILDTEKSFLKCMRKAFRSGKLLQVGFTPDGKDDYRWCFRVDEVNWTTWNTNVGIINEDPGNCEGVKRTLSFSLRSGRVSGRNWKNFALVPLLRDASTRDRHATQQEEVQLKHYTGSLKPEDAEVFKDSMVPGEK
Sequence of NaV1.6 (Q9UQD0 whole entry): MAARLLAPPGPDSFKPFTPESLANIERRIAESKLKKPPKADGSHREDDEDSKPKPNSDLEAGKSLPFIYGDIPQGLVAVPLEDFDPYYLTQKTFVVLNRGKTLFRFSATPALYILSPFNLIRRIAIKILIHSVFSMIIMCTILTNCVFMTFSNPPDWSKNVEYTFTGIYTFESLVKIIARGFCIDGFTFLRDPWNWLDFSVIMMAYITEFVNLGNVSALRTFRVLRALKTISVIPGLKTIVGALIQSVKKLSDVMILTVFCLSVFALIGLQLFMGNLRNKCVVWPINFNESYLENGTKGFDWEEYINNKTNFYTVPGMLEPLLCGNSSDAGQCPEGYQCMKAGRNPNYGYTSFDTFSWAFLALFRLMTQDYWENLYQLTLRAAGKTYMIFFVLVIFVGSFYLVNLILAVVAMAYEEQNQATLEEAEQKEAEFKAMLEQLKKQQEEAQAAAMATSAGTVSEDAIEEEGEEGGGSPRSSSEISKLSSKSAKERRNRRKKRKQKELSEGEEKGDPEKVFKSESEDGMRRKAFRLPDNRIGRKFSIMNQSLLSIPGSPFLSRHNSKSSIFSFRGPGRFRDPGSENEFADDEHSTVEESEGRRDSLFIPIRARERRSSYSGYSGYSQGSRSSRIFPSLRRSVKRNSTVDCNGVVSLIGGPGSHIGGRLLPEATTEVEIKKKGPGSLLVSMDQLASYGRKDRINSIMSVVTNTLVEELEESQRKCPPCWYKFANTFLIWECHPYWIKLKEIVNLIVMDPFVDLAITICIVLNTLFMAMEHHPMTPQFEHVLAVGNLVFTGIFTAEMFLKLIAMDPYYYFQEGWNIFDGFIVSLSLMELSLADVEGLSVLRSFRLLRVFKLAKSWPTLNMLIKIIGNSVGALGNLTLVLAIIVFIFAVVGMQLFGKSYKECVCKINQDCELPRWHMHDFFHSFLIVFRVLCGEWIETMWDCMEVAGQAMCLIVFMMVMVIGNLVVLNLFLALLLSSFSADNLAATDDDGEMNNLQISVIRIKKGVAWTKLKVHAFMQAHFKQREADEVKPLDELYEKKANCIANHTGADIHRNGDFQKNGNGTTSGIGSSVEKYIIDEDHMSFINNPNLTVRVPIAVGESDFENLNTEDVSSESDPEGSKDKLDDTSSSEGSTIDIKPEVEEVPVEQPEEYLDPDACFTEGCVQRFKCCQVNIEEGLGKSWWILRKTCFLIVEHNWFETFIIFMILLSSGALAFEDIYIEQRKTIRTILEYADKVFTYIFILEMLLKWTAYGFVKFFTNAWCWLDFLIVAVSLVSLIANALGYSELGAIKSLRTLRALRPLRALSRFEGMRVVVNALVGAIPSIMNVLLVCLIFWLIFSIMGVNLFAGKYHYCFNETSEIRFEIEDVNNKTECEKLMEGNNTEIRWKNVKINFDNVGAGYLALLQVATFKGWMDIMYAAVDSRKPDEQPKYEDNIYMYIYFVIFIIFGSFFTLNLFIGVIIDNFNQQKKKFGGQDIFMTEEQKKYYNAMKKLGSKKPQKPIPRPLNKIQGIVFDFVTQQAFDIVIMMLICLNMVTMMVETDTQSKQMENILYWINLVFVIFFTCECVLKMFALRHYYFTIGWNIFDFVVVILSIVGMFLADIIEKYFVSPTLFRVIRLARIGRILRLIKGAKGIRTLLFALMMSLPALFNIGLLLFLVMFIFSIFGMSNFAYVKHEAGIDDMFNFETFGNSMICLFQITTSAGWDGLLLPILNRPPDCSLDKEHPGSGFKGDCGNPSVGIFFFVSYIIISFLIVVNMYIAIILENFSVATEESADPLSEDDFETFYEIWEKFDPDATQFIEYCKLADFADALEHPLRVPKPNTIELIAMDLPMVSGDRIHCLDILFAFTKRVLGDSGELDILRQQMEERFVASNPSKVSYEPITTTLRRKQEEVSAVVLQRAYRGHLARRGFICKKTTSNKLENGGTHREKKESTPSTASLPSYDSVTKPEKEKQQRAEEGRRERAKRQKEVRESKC

Row | SMILES | Kinetic solubility ([1]; 1% DMSO) | Kinetic solubility ([1]; 5% DMSO) | IC50 [2] | agonist activity (activation) on TRPV1 ([2]; 1 µM compound, −60 mV) | blocking effect against TRPM8 at 5 µM ([3]; 5 µM compound) | % Block TRPM8 50 µM [3] | IC50 [3] | % Block TRPV1 50 µM [4] | IC50 [5]
1 | CC(C)(C)OC(=O)N[C@@H](CCN1C(=O)CC1(Cc1ccccc1)C(=O)OCc1ccccc1)C(=O)OCc1ccccc1 (some centres unmarked) [Compound 41, 4R,S-Benzyl-4-benzyloxycarbonyl-1-[(3′S-benzyloxycarbonyl-3-tert-butoxycarbonylamino-3′-benzyloxycarbonyl)prop-1′-yl]-2-oxoazetidine] | < 10 µM | < 10 µM | > 1000 nM | did not produce activation | 95% | 96.3 ± 1.6% | 420 nM | 38.3 ± 17.9% | > 1000 nM
2 | CC1C(=O)N(CC[C@H](NC(=O)OC(C)(C)C)C(=O)OCc2ccccc2)C1(Cc1ccccc1)C(=O)OCc1ccccc1 (stereo partly drawn) [Compound 45, 4R,S-Benzyl-4-benzyloxycarbonyl-1-[(3′S-benzyloxycarbonyl-3′-tert-butoxycarbonylamino)prop-1′-yl]-(3R,S)-methyl-2-oxoazetidine] |  |  | > 1000 nM |  |  | 100% | 800 ± 1170 nM | 31.8 ± 6.5% | > 1000 nM
